Data as given in patent US20170190705A1, “Compositions and Methods for Inhibiting BMP” (THE BRIGHAM AND WOMAN'S HOSPITAL, INC., priority 2014, published 2017).
Read-outs that look alike come from different tables or passages of the source.

Legend:
Assay type in all cases: biochemical
PASK = PASK (Homo sapiens, UniProt Q96RG2); test: Kinome profiling PASK; conditions: read-out: Inhibitory activity PASK; for inhibition at 0.1 µM: 100 nM
Protocol: (§1) . The kinome-wide selectivity was determined following the methods previously reported by Mohedas et al., ACS Chem Biol 2013, 8, 1291-1302 and Sanvitale et al., PLoS One 2013, 8, e62721.

CK1α = CK1α (Homo sapiens, UniProt P48729); test: Kinome profiling CK1α; conditions: read-out: Inhibitory activity CK1α; for inhibition at 0.1 µM: 100 nM
Protocol: as §1

AURORA-B = AURORA-B (Homo sapiens, UniProt Q96GD4); test: Kinome profiling AURORA-B; conditions: read-out: Inhibitory activity AURORA-B; for inhibition at 0.1 µM: 100 nM
Protocol: as §1

KIT = KIT (Homo sapiens, UniProt P10721); test: Kinome profiling KIT; conditions: read-out: Inhibitory activity KIT; for inhibition at 0.1 µM: 100 nM
Protocol: as §1

SGK2 = molecular target: T1, SGK2 (Homo sapiens, UniProt Q9HBY8); test: Kinome profiling SGK2; conditions: read-out: Inhibitory activity SGK2; for inhibition at 0.1 µM: 100 nM
T1 sequence (Q9HBY8 1-367): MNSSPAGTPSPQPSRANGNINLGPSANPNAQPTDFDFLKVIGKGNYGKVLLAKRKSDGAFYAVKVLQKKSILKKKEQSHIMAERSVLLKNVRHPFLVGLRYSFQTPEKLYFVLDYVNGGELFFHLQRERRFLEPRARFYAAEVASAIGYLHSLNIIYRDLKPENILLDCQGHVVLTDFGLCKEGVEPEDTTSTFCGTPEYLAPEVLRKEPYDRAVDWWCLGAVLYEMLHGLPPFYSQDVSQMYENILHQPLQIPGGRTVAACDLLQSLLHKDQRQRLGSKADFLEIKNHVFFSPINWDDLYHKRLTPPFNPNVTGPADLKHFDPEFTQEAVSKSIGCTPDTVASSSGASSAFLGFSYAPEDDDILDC
Protocol: as §1

CAMK1δ = CAMK1δ (Homo sapiens, UniProt Q8IU85); test: Kinome profiling CAMK1δ; conditions: read-out: Inhibitory activity CAMK1δ; for inhibition at 0.1 µM: 100 nM
Protocol: as §1

LCK = LCK (Homo sapiens, UniProt P06239); test: Kinome profiling LCK; conditions: for inhibition at 0.1 µM: 100 nM
Protocol: as §1

MST2 = molecular target: T2, MST2 (Homo sapiens, UniProt Q13188); test: Kinome profiling MST2; conditions: read-out: Inhibitory activity MST2; for inhibition at 0.1 µM: 100 nM
T2 sequence (Q13188 1-491): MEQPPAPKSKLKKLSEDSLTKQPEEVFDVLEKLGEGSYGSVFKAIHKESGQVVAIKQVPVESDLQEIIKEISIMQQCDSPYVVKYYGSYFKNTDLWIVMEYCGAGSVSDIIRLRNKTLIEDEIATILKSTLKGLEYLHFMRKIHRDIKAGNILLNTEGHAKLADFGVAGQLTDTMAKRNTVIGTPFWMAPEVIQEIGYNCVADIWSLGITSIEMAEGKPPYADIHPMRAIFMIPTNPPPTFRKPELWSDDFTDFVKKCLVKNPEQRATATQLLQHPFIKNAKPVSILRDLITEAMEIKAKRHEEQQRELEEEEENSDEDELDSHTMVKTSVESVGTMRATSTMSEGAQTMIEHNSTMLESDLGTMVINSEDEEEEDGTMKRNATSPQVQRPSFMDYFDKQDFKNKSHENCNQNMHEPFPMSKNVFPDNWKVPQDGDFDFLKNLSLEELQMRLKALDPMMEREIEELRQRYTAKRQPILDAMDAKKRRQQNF
Protocol: as §1

SRC = SRC (Homo sapiens, UniProt P12931); test: Kinome profiling SRC; conditions: read-out: Inhibitory activity SRC; for inhibition at 0.1 µM: 100 nM
Protocol: as §1

AKT2 = AKT2 (Homo sapiens, UniProt P31751); test: Kinome profiling AKT2; conditions: read-out: Inhibitory activity AKT2; for inhibition at 0.1 µM: 100 nM
Protocol: as §1

PAK3 = PAK3 (Homo sapiens, UniProt O75914); test: Kinome profiling PAK3; conditions: read-out: Inhibitory activity PAK3; for inhibition at 0.1 µM: 100 nM
Protocol: as §1

PRKD2 = molecular target: T3, PRKD2 (Homo sapiens, UniProt Q9BZL6); test: Kinome profiling PRKD2; conditions: for inhibition at 0.1 µM: 100 nM
T3 sequence (Q9BZL6 1-878): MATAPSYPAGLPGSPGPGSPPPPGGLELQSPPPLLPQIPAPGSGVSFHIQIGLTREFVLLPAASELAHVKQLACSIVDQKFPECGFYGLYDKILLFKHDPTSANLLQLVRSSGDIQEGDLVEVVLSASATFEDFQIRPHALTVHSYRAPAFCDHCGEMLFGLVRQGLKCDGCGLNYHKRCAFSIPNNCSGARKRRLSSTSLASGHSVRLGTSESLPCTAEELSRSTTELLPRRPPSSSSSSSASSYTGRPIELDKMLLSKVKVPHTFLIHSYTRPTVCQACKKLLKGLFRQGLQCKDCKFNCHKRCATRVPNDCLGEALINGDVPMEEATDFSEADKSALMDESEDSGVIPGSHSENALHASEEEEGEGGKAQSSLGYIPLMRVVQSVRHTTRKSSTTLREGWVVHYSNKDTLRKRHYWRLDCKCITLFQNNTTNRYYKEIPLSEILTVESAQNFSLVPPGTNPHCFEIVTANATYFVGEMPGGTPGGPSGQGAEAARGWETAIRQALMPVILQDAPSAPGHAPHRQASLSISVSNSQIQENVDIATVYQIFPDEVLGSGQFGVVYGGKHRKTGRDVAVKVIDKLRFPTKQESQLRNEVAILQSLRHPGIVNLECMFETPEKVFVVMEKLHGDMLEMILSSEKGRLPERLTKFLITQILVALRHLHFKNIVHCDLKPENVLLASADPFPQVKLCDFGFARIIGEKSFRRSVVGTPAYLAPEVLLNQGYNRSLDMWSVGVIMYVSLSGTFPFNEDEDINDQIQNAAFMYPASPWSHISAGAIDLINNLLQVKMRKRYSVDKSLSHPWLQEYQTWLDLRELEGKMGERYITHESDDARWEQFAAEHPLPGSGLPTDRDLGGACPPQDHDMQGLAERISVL
Protocol: as §1

[1] = Table 4, read-out: Inhibitory Activity LCK
[2] = read-out: Inhibitory activity LCK
[3] = Table 4, read-out: Inhibitory Activity PRKD2
[4] = read-out: Inhibitory activity PRKD2

Sequence of LCK (P06239 whole entry): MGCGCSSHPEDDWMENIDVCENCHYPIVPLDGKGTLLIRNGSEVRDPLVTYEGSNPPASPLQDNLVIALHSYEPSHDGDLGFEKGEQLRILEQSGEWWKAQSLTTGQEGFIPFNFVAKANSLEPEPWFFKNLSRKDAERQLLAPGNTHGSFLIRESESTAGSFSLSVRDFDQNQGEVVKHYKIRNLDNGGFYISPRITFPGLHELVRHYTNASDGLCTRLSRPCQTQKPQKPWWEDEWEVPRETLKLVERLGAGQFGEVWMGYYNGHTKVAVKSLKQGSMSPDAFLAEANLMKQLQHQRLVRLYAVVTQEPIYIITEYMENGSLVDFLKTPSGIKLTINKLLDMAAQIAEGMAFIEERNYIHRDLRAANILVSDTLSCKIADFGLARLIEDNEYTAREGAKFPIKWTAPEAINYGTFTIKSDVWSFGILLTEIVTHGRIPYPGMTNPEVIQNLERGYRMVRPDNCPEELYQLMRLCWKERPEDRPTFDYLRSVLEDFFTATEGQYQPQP
Sequence of PAK3 (O75914 whole entry): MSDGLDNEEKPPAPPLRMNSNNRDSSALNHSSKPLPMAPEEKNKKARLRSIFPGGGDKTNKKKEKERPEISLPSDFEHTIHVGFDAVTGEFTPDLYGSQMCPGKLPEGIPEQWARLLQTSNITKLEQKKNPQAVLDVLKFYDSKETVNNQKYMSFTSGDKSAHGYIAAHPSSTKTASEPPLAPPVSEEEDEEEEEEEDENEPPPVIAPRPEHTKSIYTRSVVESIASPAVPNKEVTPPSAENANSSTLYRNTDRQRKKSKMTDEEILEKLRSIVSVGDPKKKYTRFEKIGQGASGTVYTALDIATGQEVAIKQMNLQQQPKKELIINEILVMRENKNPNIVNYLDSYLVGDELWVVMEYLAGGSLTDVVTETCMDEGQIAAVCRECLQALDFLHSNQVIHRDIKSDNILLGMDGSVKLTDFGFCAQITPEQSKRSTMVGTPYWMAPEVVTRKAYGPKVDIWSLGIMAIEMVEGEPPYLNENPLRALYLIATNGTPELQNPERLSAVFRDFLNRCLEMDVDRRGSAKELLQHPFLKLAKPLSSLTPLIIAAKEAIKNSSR
Sequence of CAMK1δ (Q8IU85 whole entry): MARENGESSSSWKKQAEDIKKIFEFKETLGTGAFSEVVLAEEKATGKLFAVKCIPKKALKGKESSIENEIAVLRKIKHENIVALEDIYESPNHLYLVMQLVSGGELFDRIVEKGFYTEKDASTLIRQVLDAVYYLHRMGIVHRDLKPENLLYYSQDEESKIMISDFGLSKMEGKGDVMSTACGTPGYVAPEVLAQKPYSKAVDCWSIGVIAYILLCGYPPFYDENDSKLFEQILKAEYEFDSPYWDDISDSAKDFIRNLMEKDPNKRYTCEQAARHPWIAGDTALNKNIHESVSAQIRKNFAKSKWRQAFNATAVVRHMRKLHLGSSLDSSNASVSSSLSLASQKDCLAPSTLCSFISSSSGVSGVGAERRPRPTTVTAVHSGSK
Sequence of CK1α (P48729 whole entry): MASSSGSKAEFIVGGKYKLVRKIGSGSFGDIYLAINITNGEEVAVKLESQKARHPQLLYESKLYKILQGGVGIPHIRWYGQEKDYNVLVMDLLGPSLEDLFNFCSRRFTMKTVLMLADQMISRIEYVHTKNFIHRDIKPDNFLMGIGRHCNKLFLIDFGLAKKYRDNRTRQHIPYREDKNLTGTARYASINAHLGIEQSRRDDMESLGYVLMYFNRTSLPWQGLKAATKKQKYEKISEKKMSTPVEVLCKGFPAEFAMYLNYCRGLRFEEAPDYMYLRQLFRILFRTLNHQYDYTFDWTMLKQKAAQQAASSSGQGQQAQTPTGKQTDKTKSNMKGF
Sequence of PASK (Q96RG2 whole entry): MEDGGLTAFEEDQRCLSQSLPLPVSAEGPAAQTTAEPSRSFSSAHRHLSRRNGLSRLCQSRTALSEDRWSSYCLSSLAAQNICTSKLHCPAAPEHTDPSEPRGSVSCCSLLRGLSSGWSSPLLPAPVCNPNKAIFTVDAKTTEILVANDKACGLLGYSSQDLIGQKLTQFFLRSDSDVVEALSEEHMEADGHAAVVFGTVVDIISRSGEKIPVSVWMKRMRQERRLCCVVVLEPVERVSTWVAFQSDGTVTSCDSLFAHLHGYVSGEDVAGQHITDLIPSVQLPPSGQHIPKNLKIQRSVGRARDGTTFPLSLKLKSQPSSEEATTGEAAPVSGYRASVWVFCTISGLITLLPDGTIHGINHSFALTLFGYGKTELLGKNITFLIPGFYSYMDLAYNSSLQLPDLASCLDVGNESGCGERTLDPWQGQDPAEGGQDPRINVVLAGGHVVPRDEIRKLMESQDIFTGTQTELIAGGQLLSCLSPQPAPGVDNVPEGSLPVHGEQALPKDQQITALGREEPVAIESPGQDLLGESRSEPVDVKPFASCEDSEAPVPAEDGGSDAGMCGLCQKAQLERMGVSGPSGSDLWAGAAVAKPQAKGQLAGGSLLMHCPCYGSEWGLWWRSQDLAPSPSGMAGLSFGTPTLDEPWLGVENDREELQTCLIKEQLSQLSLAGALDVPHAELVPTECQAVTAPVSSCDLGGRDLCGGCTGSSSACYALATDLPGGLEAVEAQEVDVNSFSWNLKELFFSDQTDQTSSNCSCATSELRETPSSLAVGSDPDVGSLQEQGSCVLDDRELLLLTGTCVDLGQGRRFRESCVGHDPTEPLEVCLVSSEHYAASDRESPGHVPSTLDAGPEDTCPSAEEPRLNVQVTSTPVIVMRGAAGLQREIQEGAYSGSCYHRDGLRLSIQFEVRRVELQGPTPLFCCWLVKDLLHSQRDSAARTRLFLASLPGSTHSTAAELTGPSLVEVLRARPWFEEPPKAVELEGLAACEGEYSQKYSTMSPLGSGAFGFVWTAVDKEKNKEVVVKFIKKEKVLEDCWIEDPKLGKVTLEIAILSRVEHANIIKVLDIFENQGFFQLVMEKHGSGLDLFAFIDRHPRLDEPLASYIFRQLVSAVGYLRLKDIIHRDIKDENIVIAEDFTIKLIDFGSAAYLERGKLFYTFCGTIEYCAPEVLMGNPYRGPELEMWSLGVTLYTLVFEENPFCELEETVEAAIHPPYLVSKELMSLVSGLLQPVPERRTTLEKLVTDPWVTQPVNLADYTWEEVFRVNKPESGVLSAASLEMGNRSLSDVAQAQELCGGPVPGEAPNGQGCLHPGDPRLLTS
Sequence of KIT (P10721 26-976): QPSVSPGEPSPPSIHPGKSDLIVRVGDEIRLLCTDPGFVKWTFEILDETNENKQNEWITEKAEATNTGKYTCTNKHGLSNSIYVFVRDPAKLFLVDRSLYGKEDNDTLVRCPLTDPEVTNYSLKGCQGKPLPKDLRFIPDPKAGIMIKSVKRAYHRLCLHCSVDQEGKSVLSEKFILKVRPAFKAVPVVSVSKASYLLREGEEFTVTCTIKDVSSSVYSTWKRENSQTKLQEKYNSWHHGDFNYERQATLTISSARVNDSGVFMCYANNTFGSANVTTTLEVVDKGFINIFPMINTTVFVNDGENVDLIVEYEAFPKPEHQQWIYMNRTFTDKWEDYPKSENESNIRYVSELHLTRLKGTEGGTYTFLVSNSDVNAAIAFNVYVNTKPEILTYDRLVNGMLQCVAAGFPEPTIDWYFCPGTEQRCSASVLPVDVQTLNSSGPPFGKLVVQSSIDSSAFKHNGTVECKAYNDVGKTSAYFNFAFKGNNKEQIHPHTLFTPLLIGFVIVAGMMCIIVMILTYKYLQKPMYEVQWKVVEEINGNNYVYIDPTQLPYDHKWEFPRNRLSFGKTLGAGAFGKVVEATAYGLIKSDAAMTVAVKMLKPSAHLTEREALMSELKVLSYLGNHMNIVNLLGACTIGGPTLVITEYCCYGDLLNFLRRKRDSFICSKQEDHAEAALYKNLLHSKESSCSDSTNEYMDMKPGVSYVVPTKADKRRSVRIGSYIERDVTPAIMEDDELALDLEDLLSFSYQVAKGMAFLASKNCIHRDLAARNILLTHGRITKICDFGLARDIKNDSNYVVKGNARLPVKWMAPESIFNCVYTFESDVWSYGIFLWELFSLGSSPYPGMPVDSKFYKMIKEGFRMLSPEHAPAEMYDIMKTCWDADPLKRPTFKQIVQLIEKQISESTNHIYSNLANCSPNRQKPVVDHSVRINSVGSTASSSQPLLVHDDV
Sequence of AKT2 (P31751 whole entry): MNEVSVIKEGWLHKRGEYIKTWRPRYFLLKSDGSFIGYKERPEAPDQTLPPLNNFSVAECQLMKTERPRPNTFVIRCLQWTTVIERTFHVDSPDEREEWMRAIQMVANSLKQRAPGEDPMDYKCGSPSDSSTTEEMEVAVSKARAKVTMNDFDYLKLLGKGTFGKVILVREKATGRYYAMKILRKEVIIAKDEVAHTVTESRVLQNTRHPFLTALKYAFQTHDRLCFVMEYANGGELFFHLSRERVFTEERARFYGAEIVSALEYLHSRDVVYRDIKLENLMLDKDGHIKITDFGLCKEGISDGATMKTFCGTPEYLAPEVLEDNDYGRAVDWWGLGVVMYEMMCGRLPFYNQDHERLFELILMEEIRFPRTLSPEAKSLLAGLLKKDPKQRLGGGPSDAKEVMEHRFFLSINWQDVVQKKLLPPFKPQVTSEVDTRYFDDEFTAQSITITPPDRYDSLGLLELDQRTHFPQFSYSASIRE
Sequence of AURORA-B (Q96GD4 whole entry): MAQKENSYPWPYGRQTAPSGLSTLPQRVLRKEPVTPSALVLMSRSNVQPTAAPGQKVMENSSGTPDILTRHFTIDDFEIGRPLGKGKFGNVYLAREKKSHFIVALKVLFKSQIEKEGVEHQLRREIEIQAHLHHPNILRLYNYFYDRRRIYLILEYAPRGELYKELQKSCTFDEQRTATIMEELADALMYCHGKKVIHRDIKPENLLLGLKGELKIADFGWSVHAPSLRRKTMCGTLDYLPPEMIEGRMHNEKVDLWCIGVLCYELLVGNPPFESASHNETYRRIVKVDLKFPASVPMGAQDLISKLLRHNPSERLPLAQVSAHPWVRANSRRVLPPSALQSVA

Compound	inhibition at 0.1 µM (PASK) [%]	inhibition at 1 µM (PASK) [%]	inhibition at 0.1 µM (CK1α) [%]	inhibition at 1 µM (CK1α) [%]	inhibition at 0.1 µM (AURORA-B) [%]	inhibition at 1 µM (AURORA-B) [%]	inhibition at 0.1 µM (KIT) [%]	inhibition at 1 µM (KIT) [%]	inhibition at 0.1 µM (SGK2) [%]	inhibition at 1 µM (SGK2) [%]	inhibition at 0.1 µM (CAMK1δ) [%]	inhibition at 1 µM (CAMK1δ) [%]	inhibition at 0.1 µM (LCK; [2]) [%]	inhibition at 1 µM (LCK; [2]) [%]	inhibition at 0.1 µM (MST2) [%]	inhibition at 1 µM (MST2) [%]	inhibition at 0.1 µM (SRC) [%]	inhibition at 1 µM (SRC) [%]	inhibition at 0.1 µM (AKT2) [%]	inhibition at 1 µM (AKT2) [%]	further results
COc1cc(-c2cc(-c3ccc(N4CCNCC4)cc3)cnc2C)cc(OC)c1OC [Compound 10, 1-(4-(6-methyl-5-(3,4,5-trimethoxyphenyl)pyridin-3-yl)phenyl)piperazine]	3	4	2	7	2	3	5	12	1	-1	1	2	21	65	0	1	8	23	-1	-1	inhibition at 0.1 µM (LCK; [1]): 21%; inhibition at 1 µM (LCK; [1]): 65%; inhibition at 0.1 µM (PAK3): 2%; inhibition at 1 µM (PAK3): 2%; inhibition at 0.1 µM (PRKD2; [3]): 16%; inhibition at 0.1 µM (PRKD2; [4]): 16%; inhibition at 1 µM (PRKD2; [3]): 57%; inhibition at 1 µM (PRKD2; [4]): 57%
COc1cc(-c2cc(-c3ccc(N4CCNCC4)cc3)cnc2N)cc(OC)c1OC [Compound 15, 5-(4-(piperazin-1-yl)phenyl)-3-(3,4,5-trimethoxyphenyl)pyridin-2-amine]	2	1	5	18	3	8	5	22	2	3	0	-1	65	86	3	4	40	81	2	2	inhibition at 0.1 µM (PAK3): 1%; inhibition at 1 µM (PAK3): 1%; inhibition at 0.1 µM (PRKD2; [4]): 12%; inhibition at 1 µM (PRKD2; [4]): 54%
